{"source": "patent US12162888B2", "about": "“Carboxamides as ubiquitin-specific protease inhibitors” (Valo Early Discovery, Inc., priority 2018, dated 2024)", "data": [{"molecular_target": "T1, USP28 (His-tagged USP28-FL-mammalian) (Homo sapiens, UniProt Q96RU2)", "T1 construct": "Expression of USP28 (1-1077)-TEV-6*His (pTT5 vector) was carried out in Expi293f cells; made in house; host or cells: Expi293F cells (pTT5 vector)", "T1 sequence (Q96RU2 1-1077)": "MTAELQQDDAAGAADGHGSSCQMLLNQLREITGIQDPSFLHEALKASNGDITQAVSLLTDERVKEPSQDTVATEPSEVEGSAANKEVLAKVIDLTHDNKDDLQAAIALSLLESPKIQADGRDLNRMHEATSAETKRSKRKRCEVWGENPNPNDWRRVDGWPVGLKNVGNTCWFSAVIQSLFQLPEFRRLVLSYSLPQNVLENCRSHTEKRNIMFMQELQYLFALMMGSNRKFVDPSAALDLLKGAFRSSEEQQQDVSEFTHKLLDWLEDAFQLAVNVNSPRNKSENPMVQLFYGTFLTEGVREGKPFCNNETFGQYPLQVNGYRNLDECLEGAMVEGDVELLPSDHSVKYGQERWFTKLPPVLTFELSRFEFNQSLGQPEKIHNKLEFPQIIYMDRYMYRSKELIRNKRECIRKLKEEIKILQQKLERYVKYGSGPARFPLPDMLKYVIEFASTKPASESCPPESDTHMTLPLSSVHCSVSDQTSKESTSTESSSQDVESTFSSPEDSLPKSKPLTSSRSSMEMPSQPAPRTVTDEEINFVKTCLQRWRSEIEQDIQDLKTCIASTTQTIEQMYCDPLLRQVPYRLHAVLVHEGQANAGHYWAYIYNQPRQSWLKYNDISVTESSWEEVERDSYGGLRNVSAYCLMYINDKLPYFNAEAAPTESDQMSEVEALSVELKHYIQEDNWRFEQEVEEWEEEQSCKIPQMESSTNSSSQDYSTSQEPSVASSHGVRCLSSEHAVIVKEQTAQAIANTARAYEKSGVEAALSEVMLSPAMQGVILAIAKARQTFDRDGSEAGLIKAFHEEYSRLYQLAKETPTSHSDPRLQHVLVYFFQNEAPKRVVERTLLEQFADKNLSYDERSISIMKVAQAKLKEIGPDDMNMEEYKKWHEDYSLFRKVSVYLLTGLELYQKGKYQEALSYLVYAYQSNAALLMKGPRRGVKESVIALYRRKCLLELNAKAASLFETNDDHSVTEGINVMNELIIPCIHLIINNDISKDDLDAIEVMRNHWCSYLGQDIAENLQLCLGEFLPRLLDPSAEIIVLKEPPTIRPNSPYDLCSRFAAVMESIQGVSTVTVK", "assay": "Ubiquitin-Rhodamine 110 Assay for USP28 Activity, Example A-1(a)", "assay_type": "biochemical", "conditions": "Ubiquitin-Rhodamine 110 assay, read-out: USP28 A-1(a) IC50 range", "procedure,_shortened": "(§1)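 IC50s were fitted with a 4-parameter logistic to percent inhibition relative to no-enzyme and DMSO controls, using Rhodamine 110 fluorescence (485/535 nm) released from 25 nM Ub-Rh110. The enzyme was Expi293F-expressed USP28-FL-His at […], preincubated 30 min with compound (10-point, 25 μM top) in Tris pH 8.0 buffer containing BGG and Triton X-100. Substrate turnover ran 45 min at room temperature and was stopped with 10 mM citric acid.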", "units": {"IC50": "µM"}, "values": [{"smiles": "Cc1ccc2c(N)c(C(=O)N[C@H]3CCc4c(C#N)c(N5CC6CCC(C5)N6)cc(F)c4C3)sc2n1", "note": "(single isomer, unassigned) [Example 14-17]", "IC50": "0.001 to 0.05"}, {"smiles": "Cc1ccc2c(N)c(C(=O)N[C@H]3CCc4c(F)c(N5CC6CCC(C5)N6)cc(F)c4C3)sc2n1", "note": "(single isomer, unassigned) [Example 22-5]", "IC50": "0.001 to 0.05"}, {"smiles": "CN[C@@H]1CCN(c2ccc3c(c2)CC[C@H](NC(=O)c2sc4nc(C)cnc4c2N)C3)C1", "note": "(single isomer, unassigned) [Example 11-27]", "IC50": "0.05 to 0.2"}, {"smiles": "Cc1cnc2c(N)c(C(=O)N[C@@H]3CCc4c(C#N)c(N5CC6CCC(C5)N6)cc(F)c4C3)sc2n1", "note": "(single isomer, unassigned) [Example 14-20]", "IC50": "0.2 to 2"}, {"smiles": "Cc1cnc2c(N)c(C(=O)N[C@H]3CCc4cc(N5C[C@H]6C[C@@H]5CN6)ccc4C3)sc2n1", "note": "(single isomer, unassigned) [Example 11-31]", "IC50": "0.05 to 0.2"}, {"smiles": "Cc1ccc2c(N)c(C(=O)N[C@H]3CCc4cc(N5CC6CNCC(C5)O6)cc(F)c4C3)sc2n1", "note": "(single isomer, unassigned) [Example 11-39]", "IC50": "0.2 to 2"}, {"smiles": "CN[C@@H]1CN(c2ccc3c(n2)CC[C@H](NC(=O)c2sc4nc(C)ccc4c2N)C3)C[C@@H]1CF", "note": "[Example 442, 3-amino-N-[(6S)-2-[(3S,4S)-3-(fluoromethyl)-4-(methylamino)pyrrolidin-1-yl]-5,6,7,8-tetrahydroquinolin-6-yl]-6-methylthieno[2,3-b]pyridine-2-carboxamide]", "IC50": "0.05 to 0.2"}, {"smiles": "Cc1nc2sc(C(=O)N[C@@H]3CCc4c(C#N)c(N5CCNCC5)cc(F)c4C3)c(N)c2s1", "note": "(single isomer, unassigned) [Example 14-13]", "IC50": "0.2 to 2"}, {"smiles": "Cc1cnc2c(N)c(C(=O)N[C@@H]3CCc4cc(N5CCNCC5)ccc4C3)sc2n1", "note": "(single isomer, unassigned) [Example 11-20]", "IC50": "0.2 to 2"}, {"smiles": "CCn1ccc2cc(C(=O)N[C@H]3CCc4nc(N5C[C@H](COC)[C@H](N)C5)ccc4C3)cnc21", "note": "(single isomer, unassigned) [Example 401]", "IC50": "0.2 to 2"}, {"smiles": "Cc1ccc2c(N)c(C(=O)N[C@H]3COc4cc(N5C[C@H]6CC[C@@H]5CN6)ncc4C3)sc2n1", "note": "[Example 76, N-((R)-7-((1R,4R)-2,5-diazabicyclo[2.2.2]octan-2-yl)-3,4-dihydro-2H-pyrano[3,2-c]pyridin-3-yl)-3-amino-6-methylthieno[2,3-b]pyridine-2-carboxamide]", "IC50": "0.001 to 0.05"}]}, {"molecular_target": "T1, USP28 (His-tagged USP28-FL-mammalian)", "assay": "Ubiquitin-Rhodamine 110 Assay for USP28 Activity, Example A-1(a)", "assay_type": "biochemical", "conditions": "biochemical IC50 range, Ubiquitin-Rhodamine 110 assay, read-out: USP28 A-1(a)", "procedure,_shortened": "as §1", "units": {"IC50": "µM"}, "values": [{"smiles": "Cc1ccc2c(N)c(C(=O)N[C@H]3CCc4c(F)c(N5CC6CCC(C5)N6)cc(F)c4C3)sc2n1", "note": "(single isomer, unassigned) [Example 603]", "IC50": "0.001 to 0.05"}, {"smiles": "O=C(N[C@H]1COc2cc(N3CCNCC3)ccc2C1)c1ccc(NCc2cccc(Cl)c2Cl)nc1", "note": "[Example 699, 6-{[(2,3-dichlorophenyl)methyl]amino}-N-[(3R)-7-(piperazin-1-yl)-3,4-dihydro-2H-1-benzopyran-3-yl]pyridine-3-carboxamide]", "IC50": "0.001 to 0.05"}]}]}
